The record followed here is US20240158393A1, “PYRIDONE COMPOUNDS AND METHODS OF USE” (Exelixis, Inc., priority 2021, published 2024).

The experiment addresses T1, Human Mer (Homo sapiens, UniProt Q12866).
T1 construct: Human Mer (residues R557-E882 with H628Q and R794A, 0.7 nM); purchased Eurofins Pharma Discovery Services UK Limited (KinaseProfiler service)
T1 sequence (Q12866 557-882 limits assumed): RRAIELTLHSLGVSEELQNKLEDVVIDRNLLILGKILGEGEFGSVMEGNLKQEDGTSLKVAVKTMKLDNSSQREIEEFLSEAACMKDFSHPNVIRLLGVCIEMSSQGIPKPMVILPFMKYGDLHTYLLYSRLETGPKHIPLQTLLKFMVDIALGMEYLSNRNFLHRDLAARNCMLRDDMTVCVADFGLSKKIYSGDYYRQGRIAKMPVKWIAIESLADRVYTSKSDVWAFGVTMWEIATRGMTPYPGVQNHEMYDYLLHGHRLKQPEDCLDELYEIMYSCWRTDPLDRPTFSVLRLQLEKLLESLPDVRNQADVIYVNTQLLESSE
The experiment can be described thus: Human Mer kinase assay (33P radiometric / HTRF KinEase). The format is biochemical. The settings on record: protocols of Examples C-1 and/or C-2. The gist of the method: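 Two formats yield IC50 values. HTRF KinEase used MER residues 528-999 with ATP at Km (40 μM), 1 μM biotin-peptide, 60 min RT, […], 10 concentrations. 33P filter assay used 0.7 nM Mer R557-E882 (H628Q/R794A), 10 μM ATP, 250 μM peptide, 40 min RT, top 1 μM.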
Consider `COc1cc2nccc(Oc3ccc(NC(=O)c4c(C)n(C)c(C)c(/C=C/C(C)(C)C)c4=O)cc3F)c2nc1OC` [Compound 49, N-[4-[(6,7-Dimethoxy-1,5-naphthyridin-4-yl)oxy]-3-fluorophenyl]-5-[(E)-3,3-dimethylbut-1-enyl]-1,2,6-trimethyl-4-oxopyridine-3-carboxamide], for which the half-maximal inhibitory concentration (IC50) was no more than 0.1 µM.
For the molecule `COc1cc2nccc(Oc3ccc(NC(=O)c4c(C)n(C)c(C)c(/C=C/C5CC5)c4=O)cc3F)c2nc1OC` [Compound 50, 5-[(E)-2-Cyclopropylethenyl]-N-[4-[(6,7-dimethoxy-1,5-naphthyridin-4-yl)oxy]-3-fluorophenyl]-1,2,6-trimethyl-4-oxopyridine-3-carboxamide], the IC50 is no more than 0.1 µM.
The same measure for `COCCOc1cc2nccc(Oc3ccc(NC(=O)c4c(C)n(C)c(C)c(/C=C/C5CC5)c4=O)cc3F)c2nc1OC` [Compound 51, 5-[(E)-2-Cyclopropylethenyl]-N-[3-fluoro-4-[[6-methoxy-7-(2-methoxyethoxy)-1,5-naphthyridin-4-yl]oxy]phenyl]-1,2,6-trimethyl-4-oxopyridine-3-carboxamide]: no more than 0.1 µM.
`COc1cc2nccc(Oc3ccc(NC(=O)c4c5n(c(C)c(C6=CCOCC6)c4=O)CCOC5)cc3F)c2nc1OC` [Compound 79, 7-(3,6-Dihydro-2H-pyran-4-yl)-N-[4-[(6,7-dimethoxy-1,5-naphthyridin-4-yl)oxy]-3-fluorophenyl]-6-methyl-8-oxo-3,4-dihydro-1H-pyrido[2,1-c][1,4]oxazine-9-carboxamide]: the IC50 was no more than 0.1 µM.
Next, `COc1cc2nccc(Oc3ccc(NC(=O)c4c5n(c(C)c(C6=CCCCC6)c4=O)CCOC5)cc3F)c2nc1OC` [Compound 80, 7-(Cyclohexen-1-yl)-N-[4-[(6,7-dimethoxy-1,5-naphthyridin-4-yl)oxy]-3-fluorophenyl]-6-methyl-8-oxo-3,4-dihydro-1H-pyrido[2,1-c][1,4]oxazine-9-carboxamide]: no more than 0.1 µM; `COc1cnc2c(Oc3ccc(NC(=O)c4c(C)n(C)c(C)c(C#N)c4=O)cc3F)ccnc2c1` [Compound 81, 5-Cyano-N-[3-fluoro-4-[(7-methoxy-1,5-naphthyridin-4-yl)oxy]phenyl]-1,2,6-trimethyl-4-oxopyridine-3-carboxamide]: greater than 0.3 µM.
Molecule `COc1cc2nccc(Oc3ccc(NC(=O)c4c(C)n(C)c(C)c(C#N)c4=O)cc3)c2nc1OC` [Compound 82, 5-Cyano-N-[4-[(6,7-dimethoxy-1,5-naphthyridin-4-yl)oxy]phenyl]-1,2,6-trimethyl-4-oxopyridine-3-carboxamide] displayed an IC50 greater than 0.3 µM.
Molecule `COCCOc1cc2nccc(Oc3cc(F)c(NC(=O)c4c(C)n(C)c(C)c(C#N)c4=O)cc3F)c2nc1OC` [Compound 83, 5-Cyano-N-[2,5-difluoro-4-[[6-methoxy-7-(2-methoxyethoxy)-1,5-naphthyridin-4-yl]oxy]phenyl]-1,2,6-trimethyl-4-oxopyridine-3-carboxamide] displayed an IC50 greater than 0.3 µM.
Turning to `COc1cc2nccc(Oc3ccc(NC(=O)c4c(C)nc(C)c(C(N)=O)c4O)cc3F)c2nc1OC` [Compound 84, 3-N-[4-[(6,7-Dimethoxy-1,5-naphthyridin-4-yl)oxy]-3-fluorophenyl]-4-hydroxy-2,6-dimethylpyridine-3,5-dicarboxamide], the IC50 was greater than 0.3 µM.
With `COc1cc2nccc(Oc3ccc(NC(=O)c4c(C)nc(C)c(C(N)=O)c4O)cc3)c2nc1OC` [Compound 85, 3-N-[4-[(6,7-Dimethoxy-1,5-naphthyridin-4-yl)oxy]phenyl]-4-hydroxy-2,6-dimethylpyridine-3,5-dicarboxamide], the IC50 was greater than 0.3 µM.
In turn, `COCCOc1cc2nccc(Oc3cc(F)c(NC(=O)c4c(C)nc(C)c(C(N)=O)c4O)cc3F)c2nc1OC` [Compound 86, 3-N-[2,5-Difluoro-4-[[6-methoxy-7-(2-methoxyethoxy)-1,5-naphthyridin-4-yl]oxy]phenyl]-4-hydroxy-2,6-dimethylpyridine-3,5-dicarboxamide] registered an IC50 greater than 0.3 µM.
The molecule `COc1cc2nccc(Oc3ccc(NC(=O)c4c(C)nc(C)c(C#N)c4O)cc3F)c2nc1OC` [Compound 87, 5-Cyano-N-[4-[(6,7-dimethoxy-1,5-naphthyridin-4-yl)oxy]-3-fluorophenyl]-4-hydroxy-2,6-dimethylpyridine-3-carboxamide] displayed an IC50 greater than 0.3 µM.
Molecule `COc1cc2nccc(Oc3ccc(NC(=O)c4c(C)n(C)c(C)c(N5CCOCC5)c4=O)cc3F)c2nc1OC` [Compound 88, N-[4-[(6,7-Dimethoxy-1,5-naphthyridin-4-yl)oxy]-3-fluorophenyl]-1,2,6-trimethyl-5-morpholin-4-yl-4-oxopyridine-3-carboxamide] had a half-maximal inhibitory concentration (IC50) of no more than 0.1 µM.
`COc1cc2nccc(Oc3ccc(NC(=O)c4c(C)n(C)c(C)c(N5CCCC5)c4=O)cc3F)c2nc1OC` [Compound 89, N-[4-[(6,7-Dimethoxy-1,5-naphthyridin-4-yl)oxy]-3-fluorophenyl]-1,2,6-trimethyl-4-oxo-5-pyrrolidin-1-ylpyridine-3-carboxamide] returned a half-inhibitory concentration (IC50) of no more than 0.1 µM.
Consider `COc1cc2nccc(Oc3ccc(NC(=O)c4c(C)n(C)c(C)c(N5CCCCC5)c4=O)cc3F)c2nc1OC` [Compound 90, N-[4-[(6,7-dimethoxy-1,5-naphthyridin-4-yl)oxy]-3-fluorophenyl]-1,2,6-trimethyl-4-oxo-5-piperidin-1-ylpyridine-3-carboxamide], for which the IC50 is no more than 0.1 µM.
The same measure for `COc1cnc2c(Oc3ccc(NC(=O)c4c(C)nc(C)c(C(N)=O)c4O)cc3F)ccnc2c1` [Compound 91, 3-N-[3-Fluoro-4-[(7-methoxy-1,5-naphthyridin-4-yl)oxy]phenyl]-4-hydroxy-2,6-dimethylpyridine-3,5-dicarboxamide]: greater than 0.3 µM; for `COc1cc2nccc(Oc3ccc(NC(=O)c4c(C)n(C)c(C)c(C(=O)O)c4=O)cc3F)c2nc1OC` [Compound 92, 5-[[4-[(6,7-Dimethoxy-1,5-naphthyridin-4-yl)oxy]-3-fluorophenyl]carbamoyl]-1,2,6-trimethyl-4-oxopyridine-3-carboxylic acid]: greater than 0.3 µM.
For the molecule `COc1cc2nccc(Oc3ccc(NC(=O)c4c(C)nc(C)c(C(=O)N(C)C)c4O)cc3F)c2nc1OC` [Compound 93, 3-N-[4-[(6,7-Dimethoxy-1,5-naphthyridin-4-yl)oxy]-3-fluorophenyl]-4-hydroxy-5-N,5-N,2,6-tetramethylpyridine-3,5-dicarboxamide], the half-inhibitory concentration (IC50) is greater than 0.3 µM.
Turning to `COc1cc2nccc(Oc3ccc(NC(=O)c4c(C)nc(C)c(C(=O)NC(C)C)c4O)cc3F)c2nc1OC` [Compound 94, 3-N-[4-[(6,7-Dimethoxy-1,5-naphthyridin-4-yl)oxy]-3-fluorophenyl]-4-hydroxy-2,6-dimethyl-5-N-propan-2-ylpyridine-3,5-dicarboxamide], the IC50 is no more than 0.1 µM.
`COc1cc2nccc(Oc3ccc(NC(=O)c4c(C)n(C)c(C)c(C(=O)N(C)C)c4=O)cc3F)c2nc1OC` [Compound 95, 5-N-[4-[(6,7-Dimethoxy-1,5-naphthyridin-4-yl)oxy]-3-fluorophenyl]-3-N,3-N,1,2,6-pentamethyl-4-oxopyridine-3,5-dicarboxamide] returned an IC50 greater than 0.3 µM.
Take `COc1cc2nccc(Oc3ccc(NC(=O)c4c(C)n(C)c(C)c(C(=O)NC5CC5)c4=O)cc3F)c2nc1OC` [Compound 96, 3-N-Cyclopropyl-5-N-[4-[(6,7-dimethoxy-1,5-naphthyridin-4-yl)oxy]-3-fluorophenyl]-1,2,6-trimethyl-4-oxopyridine-3,5-dicarboxamide]: the 50% inhibitory concentration (IC50) is greater than 0.3 µM.
Take `CNC(=O)c1c(C)nc(C)c(C(=O)Nc2ccc(Oc3ccnc4cc(OC)c(OC)nc34)c(F)c2)c1O` [Compound 97, 3-N-[4-[(6,7-Dimethoxy-1,5-naphthyridin-4-yl)oxy]-3-fluorophenyl]-4-hydroxy-5-N,2,6-trimethylpyridine-3,5-dicarboxamide]: the half-maximal inhibitory concentration (IC50) was greater than 0.3 µM.
In the case of `COc1cc2nccc(Oc3ccc(NC(=O)c4c(C)nc(C)c(C(=O)NC5CC5)c4O)cc3F)c2nc1OC` [Compound 98, 5-N-Cyclopropyl-3-N-[4-[(6,7-dimethoxy-1,5-naphthyridin-4-yl)oxy]-3-fluorophenyl]-4-hydroxy-2,6-dimethylpyridine-3,5-dicarboxamide], the half-maximal inhibitory concentration (IC50) is greater than 0.3 µM.
The molecule `COc1cc2nccc(Oc3ccc(NC(=O)c4c5n(c(C)c(C6=CCCC6)c4=O)CCOC5)cc3)c2nc1OC` [Compound 99, 7-(Cyclopenten-1-yl)-N-[4-[(6,7-dimethoxy-1,5-naphthyridin-4-yl)oxy]phenyl]-6-methyl-8-oxo-3,4-dihydro-1H-pyrido[2,1-c][1,4]oxazine-9-carboxamide] displayed an IC50 of no more than 0.1 µM.
The molecule `COc1cc2nccc(Oc3ccc(NC(=O)c4c5n(c(C)c(C6=CCCCC6)c4=O)CCOC5)cc3)c2nc1OC` [Compound 100, 7-(Cyclohexen-1-yl)-N-[4-[(6,7-dimethoxy-1,5-naphthyridin-4-yl)oxy]phenyl]-6-methyl-8-oxo-3,4-dihydro-1H-pyrido[2,1-c][1,4]oxazine-9-carboxamide] showed an IC50 of no more than 0.1 µM.
Consider `COc1cc2nccc(Oc3ccc(NC(=O)c4c5n(cc(C6=CCCCC6)c4=O)CCOC5)cc3)c2nc1OC` [Compound G1-5, 7-(Cyclohexen-1-yl)-N-[4-[(6,7-dimethoxy-1,5-naphthyridin-4-yl)oxy]phenyl]-8-oxo-3,4-dihydro-1H-pyrido[2,1-c][1,4]oxazine-9-carboxamide], for which the IC50 was no more than 0.1 µM.

The term IC50 denotes the midpoint of a concentration-inhibition curve. Low values mean higher potency, high ones lower potency.
